Laboratory results taken from PMC7383931, “Novel Thienopyrimidine Inhibitors of Leishmania N-Myristoyltransferase with On-Target Activity in Intracellular Amastigotes” (Journal of Medicinal Chemistry, 2020).
Values joined by “and” are separate entries in the source; they are usually repeats but may differ in a detail not shown here. Identical values can stand only once. Like-named read-outs stand apart in the source and are kept apart here.

Experiments:
[1] = system: bone-marrow-derived macrophages (BMDM); assay: Alamar blue-based assay, macrophage toxicity; format: cell-based, BALB/c mice; conditions: for BMDM TC50: toxicity against bone marrow derived macrophages; for Alamar Blue Assay nAUC: toxicity against bone-marrow-derived macrophages, normalized area under the curve
Description: . Due to the steep slope of the toxicity profile and the correspondingly low accuracy of the CC50 values, the normalized area under the curve (nAUC) was used as the toxicity parameter (Figure 6A). […].
Macrophages (BMDM) were differentiated from the bone marrow of 6–8 week old female BALB/c mice, as described previously,[37] and maintained at 37 °C and 5% CO2 in DMEM (GIBCO) supplemented with 4 mM L-glutamine (GIBCO) and 4% L929-cell-conditioned medium. BMDMs were seeded at 4.2 × 10^4 cells per well in 96-well plates and adhered for at least 4 h. Subsequently, inhibitor concentrations were added for 72 h, followed by the addition of a 1/10 volume Alamar blue (Trek Diagnostics). Fluorescence was measured after 6 h as described above.

[2] = system: NMT (protein myristoylation) in L. donovani amastigotes; format: cell-based; conditions: in-gel fluorescence, varying inhibitor concentrations
[3] = molecular target: LdNMT (Leishmania donovani, UniProt D0AB09); assay: biochemical; conditions: 95% confidence interval in brackets
LdNMT, sequence (D0AB09 entry or part of it): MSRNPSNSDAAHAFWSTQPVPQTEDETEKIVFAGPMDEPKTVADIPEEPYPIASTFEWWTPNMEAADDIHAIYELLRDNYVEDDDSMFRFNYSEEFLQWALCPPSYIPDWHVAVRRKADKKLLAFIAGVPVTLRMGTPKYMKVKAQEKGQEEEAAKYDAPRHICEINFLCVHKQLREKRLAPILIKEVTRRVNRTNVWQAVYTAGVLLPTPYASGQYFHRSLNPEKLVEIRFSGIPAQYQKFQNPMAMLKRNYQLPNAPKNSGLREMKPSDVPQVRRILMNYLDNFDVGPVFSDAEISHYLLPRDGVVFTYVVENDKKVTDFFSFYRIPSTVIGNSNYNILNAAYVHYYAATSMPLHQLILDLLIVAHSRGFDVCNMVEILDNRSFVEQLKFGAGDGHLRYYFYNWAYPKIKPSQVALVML

[4] = molecular target: T1, LmNMT (Leishmania major, UniProt Q4Q5S8); assay: CPM assay (fluorogenic NMT activity assay), LmNMT; format: biochemical; conditions: 95% confidence interval in brackets; read-out: CPM Assay, IC50 (CI95) LmNMT
T1 sequence (Q4Q5S8 1-421): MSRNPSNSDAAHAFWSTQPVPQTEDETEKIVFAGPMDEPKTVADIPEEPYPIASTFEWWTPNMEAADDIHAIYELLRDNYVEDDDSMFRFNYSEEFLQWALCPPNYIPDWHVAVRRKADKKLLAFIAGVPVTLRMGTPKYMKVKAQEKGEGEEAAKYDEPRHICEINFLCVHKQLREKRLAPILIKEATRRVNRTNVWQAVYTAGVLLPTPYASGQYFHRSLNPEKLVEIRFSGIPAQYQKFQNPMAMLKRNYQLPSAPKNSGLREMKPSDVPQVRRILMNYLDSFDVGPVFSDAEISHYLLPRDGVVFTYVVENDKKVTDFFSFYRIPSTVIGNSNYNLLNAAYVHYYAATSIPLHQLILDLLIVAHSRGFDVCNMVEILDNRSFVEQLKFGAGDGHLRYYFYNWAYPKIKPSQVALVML

[5] = system: intracellular amastigotes; design: method as in PMID 30380837; conditions: cited from earlier work
[6] = system: HsNMTs; design: method as in PMID 30380837; conditions: versus Leishmania major (Lm) NMT; cited from earlier work
[7] = system: L. donovani amastigotes; assay: Alamar blue-based assay, L. donovani amastigotes; format: cell-based; conditions: Leishmania donovani

Row | Compound | BMDM TC50 [1] | Alamar Blue Assay nAUC [1] | other results
1 | CN(CCC#N)c1nc(N(C)C2CCNC2)nc2cc(C(C)(C)C)sc12 (stereo not shown) [Compound 53, 3-((6-(tert-Butyl)-2-(methyl(pyrrolidin-3-yl)amino)thieno[3,2-d]pyrimidin-4-yl)(methyl)amino)propanenitrile] | >40 µM |  | 
2 | CCN(C)c1nc(N(C)C2CCN(C)CC2)nc2ccsc12 [Compound 46, N^4-Ethyl-N^2,N^4-dimethyl-N^2-(1-methylpiperidin-4-yl)thieno[3,2-d]pyrimidine-2,4-diamine] | >50 µM | 1.05 | 
3 | CN(C)CCCN(C)c1nc(N(C)CCC#N)c2cc(Br)ccc2n1 [Compound 56, 3-((6-Bromo-2-((3-(dimethylamino)propyl)(methyl)amino)quinazolin-4-yl)(methyl)amino)propanenitrile] | >40 µM | 1.3 and 1.28 | 
4 | CN(CCC#N)c1nc(N(C)C2CCNCC2)nc2ccccc12 [Compound 23, 3-(Methyl(2-(methyl(piperidin-4-yl)amino)quinazolin-4-yl)amino)propanenitrile] | >50 µM |  | 
5 | CN(C)CCCN(C)c1nc(N2CCC[C@H]2CO)c2sccc2n1 [Compound 39, (S)-(1-(2-((3-(Dimethylamino)propyl)(methyl)amino)thieno[3,2-d]pyrimidin-4-yl)pyrrolidin-2-yl)methanol] | >50 µM | 1.14 | 
6 | CN(C)CCCN(C)c1nc(N(C)CCC#N)c2sc(C(C)(C)C)cc2n1 [Compound 51, 3-((6-(tert-Butyl)-2-((3-(dimethylamino)propyl)(methyl)amino)thieno[3,2-d]pyrimidin-4-yl)(methyl)amino)propanenitrile] | 27.3 (24.1-31.0) μM |  | 
7 | CN1CCC(N(C)c2nc(N(C)CCC#N)c3sc(C(C)(C)C)cc3n2)C1 (stereo not shown) [Compound 52, 3-((6-(tert-Butyl)-2-(methyl(1-methylpyrrolidin-3-yl)amino)thieno[3,2-d]pyrimidin-4-yl)(methyl)amino)propanenitrile] | >40 µM |  | 
8 | CCN(C)c1nc(N(C)C2CCNCC2)nc2ccsc12 [Compound 47, N^4-Ethyl-N^2,N^4-dimethyl-N^2-(piperidin-4-yl)thieno[3,2-d]pyrimidine-2,4-diamine] | >50 µM |  | 
9 | CN1CCC(N(C)c2nc(N(C)CCC#N)c3ccccc3n2)C1 (stereo not shown) [Compound 26, 3-(Methyl(2-(methyl(1-methylpyrrolidin-3-yl)amino)quinazolin-4-yl)amino)propanenitrile] | >50 µM | 1.03 | effect on myristoylation [2]: significantly decreased myristoylation in a dose-dependent manner
10 | CN(C)CCCN(C)c1nc(N(C)CCC#N)c2sccc2n1 [Compound 2, 3-((2-((3-(Dimethylamino)propyl)(methyl)amino)thieno[3,2-d]pyrimidin-4-yl)(methyl)amino)propanenitrile] |  |  | IC50 ([3]; read-out: CPM Assay, IC50 (CI95) LdNMT): 0.59 µM
11 | CN1CCC(N(CCCO)c2nc(N(C)CCC#N)c3ccccc3n2)CC1 [Compound 30, 3-((2-((3-Hydroxypropyl)(1-methylpiperidin-4-yl)amino)quinazolin-4-yl)(methyl)amino)propanenitrile] |  |  | IC50 [4]: 19 µM and 18.8 µM
12 | Cc1nn(C)c(C)c1N(C(F)F)S(=O)(=O)c1c(Cl)cc(CCCC2CCN(C)CC2)cc1Cl [DDD100097] |  |  | EC50 [5]: 2.4 µM; selectivity over HsNMTs [6]: 10 fold
13 | CN(C)CCCN(C)c1nc(N(C)CCC(N)=O)c2sccc2n1 [Compound 36] | >50 µM |  | 
14 | CN1CCC(N(C)c2nc(N(C)CCC#N)c3ccccc3n2)CC1 [Compound 3, 3-(Methyl(2-(methyl(1-methylpiperidin-4-yl)amino)quinazolin-4-yl)amino)propanenitrile] | >100 µM | 1.04 | 
15 | CN1CCC(N(C)c2nc(N(C)CCC#N)c3sc(C(C)(C)C)cc3n2)CC1 [Compound 50, 3-((6-(tert-Butyl)-2-(methyl(1-methylpiperidin-4-yl)amino)thieno[3,2-d]pyrimidin-4-yl)(methyl)amino)propanenitrile] |  |  | EC50 ([7]; extracellular L. donovani amastigotes (Table S2), read-out: Ld Amastigotes EC50 (CI05)): 10.1 µM; EC50 ([7]; intracellular L. donovani amastigotes, read-out: Alamar Blue Assay EC50 (CI95)): 10 µM
16 | CN(C)CCCN(C)c1nc(N(C)CCC#N)c2ccccc2n1 [Compound 4, 3-((2-((3-(Dimethylamino)propyl)(methyl)amino)quinazolin-4-yl)(methyl)amino)propanenitrile] | >100 µM | 1.17 | 
17 | CN1CCC(N(C)c2nc(N3CCC[C@H]3CC#N)c3sccc3n2)CC1 [Compound 43, (S)-2-(1-(2-(Methyl(1-methylpiperidin-4-yl)amino)thieno[3,2-d]pyrimidin-4-yl)pyrrolidin-2-yl)acetonitrile] | >50 µM | 1.08 | 
18 | CN1CCC(N(C)c2nc(N(C)CCC#N)c3sccc3n2)CC1 [Compound 1, 3-(Methyl(2-(methyl(1-methylpiperidin-4-yl)amino)thieno[3,2-d]pyrimidin-4-yl)amino)propanenitrile] | >100 µM | 1.07 | effect on myristoylation [2]: significantly decreased myristoylation in a dose-dependent manner
19 | CN(CCC#N)c1nc(N(CCCO)C2CCNCC2)nc2ccccc12 [Compound 29, 3-((2-((3-Hydroxypropyl)(piperidin-4-yl)amino)quinazolin-4-yl)(methyl)amino)propanenitrile] |  |  | IC50 [4]: 15 µM and 15.3 µM
20 | CCN(C)c1nc(N(C)C2CCNCC2)nc2ccc(S(=O)(=O)Nc3c(C)nn(C)c3C)cc12 [Compound 65, 4-(Ethyl(methyl)amino)-2-(methyl(piperidin-4-yl)amino)-N-(1,3,5-trimethyl-1H-pyrazol-4-yl)quinazoline-6-sulfonamide] |  |  | IC50 ([3]; CPM Assay, IC50 (CI95) LdNMT): 0.33 µM
21 | CN(C)CCCN(C)c1nc(N(C)CCCO)c2sccc2n1 [Compound 35, 3-((2-((3-(Dimethylamino)propyl)(methyl)amino)thieno[3,2-d]pyrimidin-4-yl)(methyl)amino)propan-1-ol] | >50 µM |  | 
22 | CCN1CCC(N(C)c2nc(N(C)CCC#N)c3sccc3n2)CC1 [Compound 12, 3-(Methyl(2-(methyl(1-ethylpiperidin-4-yl)amino)thieno[3,2-d]pyrimidin-4-yl)amino)propanenitrile] | >50 µM | 1.05 | 
23 | CCN1CCC(N(C)c2nc(N(C)CCC#N)c3ccccc3n2)CC1 [Compound 24, 3-((2-((1-Ethylpiperidin-4-yl)(methyl)amino)quinazolin-4-yl)(methyl)amino)propanenitrile] | >50 µM |  | 
24 | CN(CCC#N)c1nc(N(C)C2CCNCC2)nc2ccsc12 [Compound 10, 3-(Methyl(2-(methyl(piperidin-4-yl)amino)thieno[3,2-d]pyrimidin-4-yl)amino)propanenitrile] | >50 µM | 1.05 | 
25 | COC[C@@H]1CCCN1c1nc(N(C)C2CCN(C)CC2)nc2ccsc12 [Compound 40, (S)-4-(2-(Methoxymethyl)pyrrolidin-1-yl)-N-methyl-N-(1-methylpiperidin-4-yl)thieno[3,2-d]pyrimidin-2-amine] | >40 µM | 1.06 | 
